One compound from article PMC5062470, “The mGluR2 positive allosteric modulator, SAR218645, improves memory and attention deficits in translational models of cognitive symptoms associated with schizophrenia” (Scientific Reports, 2016) can be followed below.

One series relates to C57BL/6J mice. Nature of the series: Amphetamine-induced disruption of latent inhibition (LI). It is filed as in vivo. To be noted: dose-range 0.1–10, po. On the procedure:
The procedure was based on that described by Lipina et al.[39]. Briefly, male C57BL/6J mice (20–30 g, 6–8-week-old) were water restricted and trained to drink in an operant chamber for 15 min over 5 daily sessions. The LI procedure was completed in the following stages each given 24 h apart: (a) Pre-exposure: The preexposed (PE) animals received 40, 85-dB white noise presentations in the chamber for 50 min; the non-preexposed (NPE) animals were confined to the chamber for the same period but without the presence of the tone. (b) Conditioning: All mice received 2 tone-shock (1 s, 0.37 mA) pairings in the chamber. (c) Test: Each mouse was placed in the chamber and allowed to drink. After completing 75 licks, the white noise was presented and lasted until the mouse completed 100 licks. For data analysis, the time during 50–75 licks (A period) and the time to complete licks 76–100 (after tone onset; B period) was calculated into a suppression ratio defined as A/(A+B). A low suppression ratio indicates a stronger suppression of drinking. LI is defined as an […] in suppression ratio (little or no suppression), whereas a shorter time to complete licks 76–100 of the pre-exposed mice compared to the non-pre-exposed mice. Data (i.e. suppression ratio) were analyzed using the Friedman nonparametric two-way ANOVA model. […]

For series [1], the system named is OF1 mice. Nature of the series: Pentylenetetrazol (PTZ) seizure threshold test. It is filed as in vivo. Conditions: dose-range 10–30, po. On the procedure:
The seizure threshold was determined by the infusion of 8 mg/mL of PTZ at a rate of 0.7 mL/min via a flexible plastic catheter into the tail vein of freely moving OF1 mice (22–24 g) using an infusion pump. The convulsant dose for each endpoint was calculated in mg/kg PTZ. SAR218645 (10 and 30 mg/kg, po) and diazepam (3 mg/kg, ip) were administered 60 or 30 min prior to the beginning of PTZ infusion, respectively. One-way ANOVA was used to assess overall effect of treatment, and Dunnett’s post-hoc was used to compare differences between treatment groups. Ten to fifteen animals per group were used.

The next series deals with T1, native mouse mGluR2 (Mus musculus, UniProt Q14BI2).
T1 construct: SAR218645 acted as a pure mGluR2 PAM at native mouse mGluR2 in the cortex; from tissue; host or cells: mouse cortex membranes
T1 sequence (Q14BI2 19-872): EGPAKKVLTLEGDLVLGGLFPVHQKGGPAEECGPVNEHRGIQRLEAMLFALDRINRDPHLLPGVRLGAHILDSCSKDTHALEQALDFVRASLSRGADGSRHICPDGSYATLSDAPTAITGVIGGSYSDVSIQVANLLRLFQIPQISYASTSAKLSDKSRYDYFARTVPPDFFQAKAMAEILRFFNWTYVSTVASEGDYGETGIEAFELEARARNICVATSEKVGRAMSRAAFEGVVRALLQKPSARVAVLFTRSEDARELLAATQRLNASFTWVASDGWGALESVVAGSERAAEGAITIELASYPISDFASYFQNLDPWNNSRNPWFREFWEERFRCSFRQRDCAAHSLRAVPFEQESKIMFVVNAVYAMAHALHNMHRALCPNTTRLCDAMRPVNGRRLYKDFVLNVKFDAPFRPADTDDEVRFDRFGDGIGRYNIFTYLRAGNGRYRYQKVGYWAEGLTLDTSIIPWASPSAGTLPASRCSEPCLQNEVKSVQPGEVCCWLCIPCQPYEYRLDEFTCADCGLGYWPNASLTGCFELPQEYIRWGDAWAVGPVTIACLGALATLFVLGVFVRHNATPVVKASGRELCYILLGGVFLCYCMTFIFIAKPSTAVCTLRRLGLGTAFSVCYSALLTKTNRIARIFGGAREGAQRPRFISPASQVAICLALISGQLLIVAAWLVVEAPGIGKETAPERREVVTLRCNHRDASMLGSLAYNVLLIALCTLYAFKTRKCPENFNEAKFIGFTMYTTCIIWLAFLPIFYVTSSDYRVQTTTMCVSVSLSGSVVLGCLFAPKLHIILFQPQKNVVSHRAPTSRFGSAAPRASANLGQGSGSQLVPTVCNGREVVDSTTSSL
Nature of the series: [35S]GTPγS binding to mouse cortex. It counts as biochemical. Conditions: absence of glutamate. On the procedure:
The assay was performed in 96-well filtration plates in 250 μl total volume. […] For termination of the reaction, the plate was filtered and dried prior to adding 50 μl Microscint 40, and counted on the 1450 TopCount Microbeta Counter. EC50 were calculated using 4-parameter curve fitting.
(In general: Binding of GTPγS marks nucleotide exchange on a G protein.)

The target of a further series is T2, human mGluR1 (Homo sapiens, UniProt Q13255).
T2 construct: host or cells: HEK293 co-expressing Gqi5
T2 sequence (Q13255 19-1194): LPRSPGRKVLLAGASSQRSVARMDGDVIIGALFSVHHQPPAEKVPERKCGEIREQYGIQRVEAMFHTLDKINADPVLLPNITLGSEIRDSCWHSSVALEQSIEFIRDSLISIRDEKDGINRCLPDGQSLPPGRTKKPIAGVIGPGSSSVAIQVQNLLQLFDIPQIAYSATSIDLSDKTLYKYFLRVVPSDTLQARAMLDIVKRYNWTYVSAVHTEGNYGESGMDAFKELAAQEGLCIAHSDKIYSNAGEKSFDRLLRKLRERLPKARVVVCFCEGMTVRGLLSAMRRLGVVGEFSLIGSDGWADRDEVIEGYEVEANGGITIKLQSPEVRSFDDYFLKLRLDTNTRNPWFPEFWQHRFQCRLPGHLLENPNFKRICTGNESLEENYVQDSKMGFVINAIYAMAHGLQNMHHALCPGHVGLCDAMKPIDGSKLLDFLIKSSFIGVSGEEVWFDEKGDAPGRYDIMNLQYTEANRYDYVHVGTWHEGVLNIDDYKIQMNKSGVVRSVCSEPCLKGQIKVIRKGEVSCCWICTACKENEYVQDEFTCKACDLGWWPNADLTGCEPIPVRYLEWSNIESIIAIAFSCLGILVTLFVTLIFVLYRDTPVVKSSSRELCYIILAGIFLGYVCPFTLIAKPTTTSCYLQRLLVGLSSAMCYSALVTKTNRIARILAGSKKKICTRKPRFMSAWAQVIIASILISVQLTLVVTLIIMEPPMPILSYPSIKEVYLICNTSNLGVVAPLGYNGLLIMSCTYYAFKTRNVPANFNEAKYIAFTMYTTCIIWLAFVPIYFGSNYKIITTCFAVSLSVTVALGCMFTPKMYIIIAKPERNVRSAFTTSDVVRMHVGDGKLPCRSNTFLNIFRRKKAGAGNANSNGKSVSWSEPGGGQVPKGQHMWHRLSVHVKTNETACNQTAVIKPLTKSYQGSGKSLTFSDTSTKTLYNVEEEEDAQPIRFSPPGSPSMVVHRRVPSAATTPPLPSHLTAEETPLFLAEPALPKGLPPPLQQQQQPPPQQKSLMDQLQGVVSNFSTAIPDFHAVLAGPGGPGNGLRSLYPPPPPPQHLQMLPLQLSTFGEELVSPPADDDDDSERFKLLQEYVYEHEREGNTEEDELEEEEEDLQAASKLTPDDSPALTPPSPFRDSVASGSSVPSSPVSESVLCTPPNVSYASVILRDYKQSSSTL
Nature of the series: Multispan Allosteric Profiling panel, Ca2+ (Gqi5). It counts as cell-based.

Series [2] relates to OF1 mice. Put plainly: 6-Hz electroshock-induced seizures. It counts as in vivo. Conditions: dose-range 10–30, ip. On the procedure:
SAR218645 (10 and 30 mg/kg, po) and the reference anticonvulsant agent, levetiracetam (20 mg/kg), were administered ip. to OF1 mice (12–14 g) 30 min prior to test, respectively. An electrical stimulus (6 Hz, 0.2 ms rectangular pulse, 3 s duration, 32 mA) was applied to both corneas. Animals were closely observed and rated for seizure behavior according to a modified Racine scale. Kruskal-Wallis multiple comparisons test was used to assess potential differences between treatment groups.

Series [3] can be described thus: Plasma exposure and brain penetration after single oral dose. It counts as in vivo, mice. Conditions: male; for AUC(0-inf) / AUC(0-t): CD-1, mouse; for AUC(0-t): tlast 8 h; for Cmax: mouse, CD-1 mice. The method, then:
Plasma and brain exposures of SAR218645 in male CD-1 mice (25–30 g at arrival) were measured after single oral doses of 1, 3 and 10 mg/kg. Mouse plasma samples (25.0 μl) were transferred into micro-centrifuge tubes (1.7 ml) and mixed with 50 μl of Internal Standard solution (500 ng/ml in acetonitrile). The tubes were vortex mixed for 1 min and centrifuged at 10,000 g for 5 min. An aliquot of the supernatant (50 μl) was transferred into an autosampler vial and mixed with 100 μl of water for LC/MS/MS analysis. Each mouse brain was first homogenized with 3.0 ml of 25% acetonitrile in water. The tissue homogenates (50.0 μl) were transferred into micro-centrifuge tubes (1.7 ml) and mixed with 100 μl of Internal Standard solution (500 ng/ml of A000597492 in acetonitrile). The tubes were vortex mixed for 1 min and centrifuged at 10,000 g for 5 min. An aliquot of the supernatant (50 μl) was transferred into an autosampler vial and mixed with 100 μl of water for LC/MS/MS analysis. The lower limits of quantitation (LLOQ) for SAR218645 were 0.500 ng/ml for plasma and 0.100 ng/ml for brain homogenate. The calibration curves were linear in the above prepared concentration ranges. The LLOQ for brain tissue was estimated to be approximately 0.80 ng/g. The pharmacokinetic parameters were calculated from the arithmetic mean of the group sample concentrations using the program WinNonLin 5.2., non-compartment model 200 for the extravascular routes.

Another series relates to NMDA Nr1neo−/− mice. Nature of the series: Y-maze test. It counts as in vivo. On the procedure: The apparatus consisted of 3 arms in gray PVC in the shape of a Y. Arms were 28 cm long, 6 cm wide with walls 15 cm high. Movement was tracked manually using in-house software by an experimenter located in an adjacent room via a camera mounted directly above the maze. The animal was placed in an arm facing the center (Arm A) for 5 min. A correct alternation occurred when the animal moved to the other 2 arms without retracing its steps (i.e. Arm A to B to C). Movements such as ABA were incorrect. Based on the movement over the entire session, the percentage of correct alternations was calculated [i.e., (Total number of alternations × 100)/(Total number of arm entries-2)]. SAR218645 was administered po at 0.1 mg/kg 60 min prior to testing to either wild-type or NMDA Nr1^neo−/− mice. No dose-response effect was investigated due to the limited number of transgenic animals available. Statistics performed on total arm entries and percentage alternation consisted of using a two-way ANOVA, followed by a post-hoc Winer test for individual comparisons. Student’s t-test was used to compare the performance of each group with the chance level. Ten to eleven animals per group were used.

The AUC(0-inf) is total exposure, with the tail of the curve extrapolated. Read a high AUC(0-inf) as high exposure. A word on the AUC(0-t): it is the area under the concentration-time curve up to a stated or last time point. Lower therefore signals less exposure. As usually defined, the Cmax is the maximum level reached in the sampled fluid or tissue. Regarding `CC1(C)CCc2cc(OC[C@@H]3Cn4ccc(=O)nc4O3)ccc21` [SAR218645, (S)-2-(1,1-dimethyl-indan-5-yloxymethyl)-2,3-dihydro-oxazolo[3,2-a]pyrimidin-7-one], the Minimal active dose is 1 mg/kg in the series on C57BL/6J mice; more than 30 mg/kg in the series on OF1 mice [1]; more than 30 mg/kg in the series with OF1 mice [2]; 0.1 mg/kg in the series on NMDA Nr1neo−/− mice (0.1, po). Also, the intrinsic activity result at native mouse mGluR2 is “did not have any intrinsic activity”. For the same compound, the “effect on glutamate-induced activation” value on human mGluR1 (10 μM SAR218645) is “no effect”. Moreover, the “calcium response to compound alone” value on human mGluR1 (SAR218645 alone) is “did not elicit a calcium response”. For the same compound, the AUC(0-inf) in series [3] (plasma, 1 mg/kg oral) is 230 ng·h/mL; in series [3] (plasma, 3 mg/kg oral) it was 540 ng·h/mL; in series [3] (plasma, 10 mg/kg oral) it was 2400 ng·h/mL. In addition, the area under the curve AUC(0-t) in series [3] (plasma, 1 mg/kg oral) was found to be 230 ng·h/mL; in series [3] (plasma, 3 mg/kg oral), 540 ng·h/mL; in series [3] (plasma, 10 mg/kg oral), 2300 ng·h/mL. Moreover, the Cmax in series [3] (brain, 1 mg/kg oral) worked out at 32 ng/g; in series [3] (brain, 3 mg/kg oral), 103 ng/g; in series [3] (brain, 10 mg/kg oral), 339 ng/g; in series [3] (plasma, 1 mg/kg oral), 131 ng/mL; in series [3] (plasma, 3 mg/kg oral) it was 434 ng/mL; in series [3] (plasma, 10 mg/kg oral), 1080 ng/mL. Further, the “spontaneous alternations versus saline-treated transgenic animals” value in the series on NMDA Nr1neo−/− mice (0.1 mg/kg po, P < 0.05) is recorded as “significantly more spontaneous alternations”.
